US8227469B2, “Vanilloid receptor ligands and their use in treatments” (Amgen Inc., priority 2004, dated 2012)

| melting point | Compound |
| --- | --- |
| 206 to 207 °C | C[C@@H](c1ccc(F)cc1)N1CCN(c2cc(Nc3ccc4cccnc4c3)ncn2)CC1 [Example 5, (6-{4-[(1S)-1-(4-Fluorophenyl)-ethyl]-piperazin-1-yl}-pyrimidin-4-yl)-quinolin-7-yl-amine] |
| > 200 °C (dec.) | CC(=O)Nc1nc2c(Oc3cc(C4=CCC(C(C)(C)C)CC4)ncn3)cccc2s1 (stereo not drawn) [Example 8, N-{4-[6-(4-tert-Butyl-cyclohex-1-enyl)-pyrimidin-4-yloxy]-benzothiazol-2-yl}-acetamide] |
| 206 to 207 °C | C[C@H](c1ccc(F)cc1)N1CCN(c2cc(Nc3ccc4cccnc4c3)ncn2)CC1 [Example 4, (6-{4-[(1R)-1-(4-Fluorophenyl)-ethyl]-piperazin-1-yl}-pyrimidin-4-yl)-quinolin-7-yl-amine] |
